Assay type in all cases: cell-based
The test system of one assay is HRV16. The assay is described as follows: HRV16 HELA EC50 (cytopathic effect in H1-HeLa cells). In short, it runs like this:
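H1-HeLa cells seeded one day before, given 3-fold serial compound dilutions in triplicate just prior to infection with pre-titrated virus. Incubated 96 h at 33 °C/5% CO2; protection from cytopathic effect read as viability by CellTiter-Glo luminescence, normalised to infected untreated (0%) and uninfected (100%) controls.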

The next assay has as its system RSV strain A2. The assay is described as follows: RSV HEp-2 EC50 (infectious cytopathic cell protection assay). Conditions: HEp-2 cells, RSV A2, 4 days, read-out: RSV HEp-2 EC50. In short, it runs like this:
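HEp-2 cells mixed with titered RSV A2 at 50,000 cells/ml were added to plates holding 3-fold serial compound dilutions in DMSO, then incubated 4 days at 37° C. Cytoprotection was read as cell viability by CellTiter-Glo luminescence and converted to percent inhibition against 0% and 100% inhibition controls.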

The subject of another assay is RSV A2. The assay is described as follows: RSV NHBE EC50 (RSV A2 antiviral assay in normal human bronchial epithelial cells). Conditions: NHBE cells, RSV A2, 4 days, read-out: RSV NHBE EC50.
The test system of the next assay is DENV2 replicon. The assay is described as follows: DENV-2 Huh-7 Rep EC50 (replicon luminescence). Conditions: read-out: DENV-2 Huh-7 Rep EC50. In short, it runs like this:
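Huh-7 cells carrying a DENV2 replicon, 5,000 cells/well, were incubated with dosed compounds for 48 h at 37° C. EnduRen live-cell substrate was added 1.5 h before luminescence reading. EC50 came from dose-response against DMSO-only wells.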

Setting [1] is: 96 h, H1-HeLa cells, 33° C., read-out: HRV16 HELA EC50.
[2] abbreviates: human respiratory syncytial virus, HEp-2, 96 h.
[3] abbreviates: human respiratory syncytial virus, NHBE, 96 h.
Where [4] appears, read: Dengue virus, DENV2, Huh-7, 48 h, Huh-7 replicon cells, 48 hours.
[5] abbreviates: H1-HeLa cells, 96 h, 33° C.; read-out: HRV16 HELA EC50.
Setting [6] is: human respiratory syncytial virus, 96 h.

Like-named read-outs stand apart in the source and are kept apart here. A value given as a limit tells only on which side of the number the result lay.

For the molecule `CCC(CC)COC(=O)C1(NP(=O)(OC[C@@]2(C#N)O[C@@H](c3ccc4c(N)ncnn34)[C@H](O)[C@@H]2O)Oc2ccccc2)CCC1` (stereo partly drawn) [Example 100, 2-ethylbutyl 1-(((((2R,3S,4R,5S)-5-(4-aminopyrrolo[2,1-f][1,2,4]triazin-7-yl)-2-cyano-3,4-dihydroxytetrahydrofuran-2-yl)methoxy)(phenoxy)phosphoryl)amino)cyclobutanecarboxylate], the EC50 with HRV16 (setting [1]) was 18 µM; in the assay on RSV strain A2 (setting [2]), more than 5.6 µM; in the assay with RSV A2 (setting [3]), 3.6 µM; with DENV2 replicon (setting [4]), more than 50 µM.

`C[C@H](NP(=O)(OC[C@@]1(C#N)O[C@@H](c2ccc3c(N)ncnn23)[C@H](O)[C@@H]1O)Oc1ccccc1)C(=O)O[C@H]1CC[C@@H](C(F)(F)F)CC1` (single isomer, unassigned) [Example 180]: the EC50 stood at 0.851 µM in the assay on HRV16 (setting [1]), 0.142 µM in the assay on RSV strain A2, 0.833 µM in the assay with RSV A2 and 6.62 µM in the assay on DENV2 replicon (setting [4]).

As for `CC(C)OC(=O)[C@H](Cc1ccccc1)NP(=O)(OC[C@@]1(C#N)O[C@@H](c2ccc3c(N)ncnn23)[C@H](O)[C@@H]1O)Oc1ccccc1` (stereo partly drawn) [Example 80, (2S)-isopropyl 2-(((((2R,3S,4R,5S)-5-(4-aminopyrrolo[2,1-f][1,2,4]triazin-7-yl)-2-cyano-3,4-dihydroxytetrahydrofuran-2-yl)methoxy)(phenoxy)phosphoryl)amino)-3-phenylpropanoate], the EC50 in the assay on HRV16 (setting [1]) was 8.96 µM; in the assay on RSV strain A2 (setting [2]) it was 3.83 µM; in the assay with RSV A2 (setting [3]), 4.7 µM; with DENV2 replicon (setting [4]), more than 50 µM.

`C[C@H](NP(=O)(OC[C@@]1(C#N)O[C@@H](c2ccc3c(N)ncnn23)[C@H](O)[C@@H]1O)Oc1ccccc1)C(=O)OCCN(C)C` (stereo partly drawn) [Example 162, 2-(dimethylamino)ethyl ((((2R,3S,4R,5S)-5-(4-aminopyrrolo[2,1-f][1,2,4]triazin-7-yl)-2-cyano-3,4-dihydroxytetrahydrofuran-2-yl)methoxy)(phenoxy)phosphoryl)-L-alaninate]: the EC50 with HRV16 (setting [1]) was 12.8 µM; in the assay on RSV strain A2 (setting [2]), 6.05 µM; with RSV A2 (setting [3]) it was more than 5 µM; with DENV2 replicon (setting [4]) it was 13.8 µM.

Consider `CCCCCCCCCCCCCCCCCCOCCOP(=O)(O)OC[C@@]1(C#N)O[C@@H](c2ccc3c(N)ncnn23)[C@H](O)[C@@H]1O` [Example 148, ((2R,3S,4R,5S)-5-(4-aminopyrrolo[2,1-f][1,2,4]triazin-7-yl)-2-cyano-3,4-dihydroxytetrahydrofuran-2-yl)methyl (2-(octadecyloxy)ethyl) hydrogen phosphate], for which the EC50 in the assay with HRV16 (setting [5]) was 36.9 µM; in the assay on RSV strain A2 (setting [6]) it was 2.67 µM; in the assay with RSV A2 (setting [6]), 0.32 µM; in the assay with DENV2 replicon (Dengue virus, DENV2, Huh-7, 48 h) it was more than 50 µM.

With `CC(C)C[C@H](NP(=O)(OC[C@@]1(C#N)O[C@@H](c2ccc3c(N)ncnn23)[C@H](O)[C@@H]1O)Oc1ccccc1)C(=O)OCC1CC1` (mixture of isomers) [Example 130, (2S)-cyclopropylmethyl 2-(((((2R,3S,4R,5S)-5-(4-aminopyrrolo[2,1-f][1,2,4]triazin-7-yl)-2-cyano-3,4-dihydroxytetrahydrofuran-2-yl)methoxy)(phenoxy)phosphoryl)amino)-4-methylpentanoate], the EC50 in the assay on HRV16 (setting [1]) is 7.3 µM; in the assay with RSV strain A2 (setting [2]), 3.59 µM; in the assay on RSV A2 (setting [3]), 0.438 µM; with DENV2 replicon (setting [4]) it was more than 100 µM.

As for `CC(=O)N1CCC(OC(=O)C(C)NP(=O)(OC[C@@]2(C#N)O[C@@H](c3ccc4c(N)ncnn34)[C@H](O)[C@@H]2O)Oc2ccccc2)CC1` (stereo partly drawn) [Example 185, 1-acetylpiperidin-4-yl ((((2R,3S,4R,5S)-5-(4-aminopyrrolo[2,1-f][1,2,4]triazin-7-yl)-2-cyano3,4-dihydroxytetrahydrofuran-2-yl)methoxy)(phenoxy)phosphoryl)alaninate], the EC50 in the assay with HRV16 (setting [1]) was more than 80.2 µM; in the assay with RSV strain A2 (setting [2]), 7.94 µM; in the assay on RSV A2 (setting [3]), more than 5 µM; in the assay with DENV2 replicon (setting [4]), more than 100 µM.

Regarding `C[C@H](NP(=O)(OC[C@@]1(C#N)O[C@@H](c2ccc3c(N)ncnn23)[C@H](O)[C@@H]1O)Oc1ccccc1)C(=O)OCC1COC1` (stereo partly drawn) [Example 49, oxetan-3-ylmethyl ((((2R,3S,4R,5S)-5-(4-aminopyrrolo[2,1-f][1,2,4]triazin-7-yl)-2-cyano-3,4-dihydroxytetrahydrofuran-2-yl)methoxy)(phenoxy)phosphoryl)-L-alaninate], the EC50 in the assay on HRV16 (setting [1]) was 8.72 µM; in the assay on RSV strain A2 (setting [2]), 1.08 µM; in the assay with RSV A2 (setting [3]), 2.43 µM; in the assay on DENV2 replicon (setting [4]) it was more than 50 µM.

As for `CC[C@H](N[P@@](=O)(OC[C@@]1(C#N)O[C@@H](c2ccc3c(N)ncnn23)[C@H](O)[C@@H]1O)Oc1ccccc1)C(=O)OC1CCCCC1` [Example 104], the EC50 in the assay on HRV16 (setting [5]) is 1.8 µM; in the assay on RSV strain A2, 0.79 µM; in the assay on RSV A2, 0.368 µM; in the assay with DENV2 replicon (Huh-7 replicon cells, 48 hours), more than 50 µM.

Regarding `CC(NP(=O)(OC[C@@]1(C#N)O[C@@H](c2ccc3c(N)ncnn23)[C@H](O)[C@@H]1O)Oc1ccccc1)C(=O)O[C@H]1CCNC1=O` (mixture of isomers) [Example 153, (S)-2-oxopyrrolidin-3-yl ((((2R,3S,4R,5S)-5-(4-aminopyrrolo[2,1-f][1,2,4]triazin-7-yl)-2-cyano-3,4-dihydroxytetrahydrofuran-2-yl)methoxy)(phenoxy)phosphoryl)alaninate], the EC50 in the assay with HRV16 (setting [1]) is 12.5 µM; with RSV strain A2 (setting [2]), 7.14 µM; with RSV A2 (setting [3]), more than 5 µM; with DENV2 replicon (setting [4]), more than 100 µM.

Consider `C[C@H](NP(=O)(OC[C@@]1(C#N)O[C@@H](c2ccc3c(N)ncnn23)[C@H](O)[C@@H]1O)Oc1ccccc1)C(=O)O[C@H]1CC[C@H](c2ccccc2)CC1` (stereo partly drawn) [Example 186, trans-4-phenylcyclohexyl ((((2R,3S,4R,5S)-5-(4-aminopyrrolo[2,1-f][1,2,4]triazin-7-yl)-2-cyano-3,4-dihydroxytetrahydrofuran-2-yl)methoxy)(phenoxy)phosphoryl)-L-alaninate], for which the EC50 in the assay on HRV16 (setting [1]) came to 4.75 µM; with RSV strain A2 (setting [2]), 2.77 µM; in the assay on RSV A2 (setting [3]) it was 0.07 µM; in the assay with DENV2 replicon (setting [4]), 60.3 µM.

As to `CCCCCCCCCCCCCCCCCCOC[C@H](COC(=O)C(C)NP(=O)(OC[C@@]1(C#N)O[C@@H](c2ccc3c(N)ncnn23)[C@H](O)[C@@H]1O)Oc1ccccc1)OCc1ccccc1` (stereo partly drawn) [Example 190, (R)-2-(benzyloxy)-3-(octadecyloxy)propyl ((((2R,3S,4R,5S)-5-(4-aminopyrrolo[2,1-f][1,2,4]triazin-7-yl)-2-cyano3,4-dihydroxytetrahydrofuran-2-yl)methoxy)(phenoxy)phosphoryl)alaninate], the EC50 was 2.64 µM in the assay on HRV16 (setting [1]), 0.136 µM with RSV strain A2 (setting [2]), 2.06 µM in the assay on RSV A2 (setting [3]) and more than 100 µM with DENV2 replicon (setting [4]).

As for `CC1(C(=O)OCCNP(=O)(OC[C@@]2(C#N)O[C@@H](c3ccc4c(N)ncnn34)[C@H](O)[C@@H]2O)Oc2ccccc2)CC1` (stereo partly drawn) [Example 141, 2-(((((2R,3S,4R,5S)-5-(4-aminopyrrolo[2,1-f][1,2,4]triazin-7-yl)-2-cyano-3,4-dihydroxytetrahydrofuran-2-yl)methoxy)(phenoxy)phosphoryl)amino)ethyl 1-methylcyclopropane-1-carboxylate], the EC50 in the assay on HRV16 (setting [1]) is 14.9 µM; in the assay on RSV strain A2 (setting [2]), 2.01 µM; in the assay with RSV A2 (setting [3]) it was 0.067 µM; with DENV2 replicon (setting [4]) it was more than 50 µM.

`CC(C)OC(=O)[C@H](C)N[P@@](=O)(OC[C@@]1(C#N)O[C@@H](c2ccc3c(N)ncnn23)[C@H](O)[C@@H]1O)Oc1ccccc1` (single isomer, unassigned) [Example 78]: the EC50 in the assay with HRV16 (setting [1]) was 2.26 µM; in the assay on RSV strain A2 (setting [2]), 2.04 µM; in the assay with RSV A2 (setting [3]), 1.77 µM; in the assay on DENV2 replicon (setting [4]), more than 50 µM.

In the case of `CC[C@H](NP(=O)(OC[C@@]1(C#N)O[C@@H](c2ccc3c(N)ncnn23)[C@H](O)[C@@H]1O)Oc1ccccc1)C(=O)OC(C)C` (stereo partly drawn) [Example 87, (2S)-isopropyl 2-(((((2R,3S,4R,5S)-5-(4-aminopyrrolo[2,1-f][1,2,4]triazin-7-yl)-2-cyano-3,4-dihydroxytetrahydrofuran-2-yl)methoxy)(phenoxy)phosphoryl)amino)butanoate], the EC50 with HRV16 (setting [1]) was 6.71 µM; in the assay on RSV strain A2 (setting [2]) it was 1.34 µM; in the assay on RSV A2 (setting [3]), 1.7 µM; with DENV2 replicon (setting [4]), more than 100 µM.

On to `CC(C)(C)C(=O)OCCNP(=O)(OCC1(C#N)OC(c2ccc3c(N)ncnn23)C(O)C1O)Oc1ccccc1` (single isomer, unassigned) [Example 12], for which the concentration for a half-maximal effect (EC50) with HRV16 (setting [5]) was 1.93 µM; in the assay on RSV strain A2, 0.244 µM; in the assay on RSV A2 it was 0.029 µM; in the assay on DENV2 replicon (Huh-7 replicon cells, 48 hours), more than 50 µM.

Take `C[C@H](NP(=O)(OC[C@@]1(C#N)O[C@@H](c2ccc3c(N)ncnn23)[C@H](O)[C@@H]1O)Oc1ccccc1)C(=O)OC1CCC1` (single isomer, unassigned) [Example 50]: the EC50 with HRV16 (setting [1]) amounted to 0.464 µM; with RSV strain A2 (setting [2]) it was 0.044 µM; in the assay with RSV A2 (setting [3]) it was 0.498 µM; in the assay with DENV2 replicon (setting [4]), 6.92 µM.

(Values after patent US20230295201A1 (Gilead Sciences, Inc., priority 2020, published 2023).)
